Consider 37 compounds from patent US20210220408A1, “ARYL HYDROCARBON RECEPTOR ANTAGONISTS AND METHODS OF USE” (Magenta Therapeutics Inc., priority 2018, published 2021).

In the test the target is T1, aryl hydrocarbon receptor (AHR) (Homo sapiens, UniProt P35869).
T1 sequence (P35869 11-848): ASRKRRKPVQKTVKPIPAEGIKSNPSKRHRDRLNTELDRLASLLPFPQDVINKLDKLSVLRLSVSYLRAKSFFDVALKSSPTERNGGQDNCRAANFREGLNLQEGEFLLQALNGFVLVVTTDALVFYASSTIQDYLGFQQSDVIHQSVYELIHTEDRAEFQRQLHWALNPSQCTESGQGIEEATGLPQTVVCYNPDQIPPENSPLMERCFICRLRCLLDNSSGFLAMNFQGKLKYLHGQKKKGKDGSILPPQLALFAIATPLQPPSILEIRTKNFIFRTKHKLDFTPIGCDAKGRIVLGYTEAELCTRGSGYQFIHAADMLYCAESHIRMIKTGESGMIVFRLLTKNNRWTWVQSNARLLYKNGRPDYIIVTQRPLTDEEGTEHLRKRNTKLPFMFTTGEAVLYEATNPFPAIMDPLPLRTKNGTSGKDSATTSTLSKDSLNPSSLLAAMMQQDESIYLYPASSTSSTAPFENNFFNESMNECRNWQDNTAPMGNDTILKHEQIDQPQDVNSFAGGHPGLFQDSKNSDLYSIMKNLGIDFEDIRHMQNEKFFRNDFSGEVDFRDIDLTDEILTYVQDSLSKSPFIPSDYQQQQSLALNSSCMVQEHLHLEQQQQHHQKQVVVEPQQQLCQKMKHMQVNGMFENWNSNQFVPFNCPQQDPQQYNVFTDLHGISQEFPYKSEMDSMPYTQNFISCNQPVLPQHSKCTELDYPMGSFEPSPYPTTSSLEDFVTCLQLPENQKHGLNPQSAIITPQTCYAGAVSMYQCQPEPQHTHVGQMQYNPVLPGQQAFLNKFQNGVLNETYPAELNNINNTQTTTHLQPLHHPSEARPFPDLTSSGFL
Put plainly: DRE-Luciferase reporter high-throughput screen (AHR antagonist, VAF347-activated). A general note: Reporter assays use an easily measured gene product as a stand-in for the process of interest.

Regarding `Cc1nnc(Oc2ccc(Cl)cc2Cl)c2ccccc12` [159A], the 50% inhibitory concentration (IC50) (in general, the midpoint of a concentration-inhibition curve) is 1 to 2 µM.
In turn, `CCC(C)C(=O)Nc1ccc(-c2nnc(-c3ccccc3C)o2)cc1` (stereo not shown) [83B] returned an IC50 of 0.5 to 1 µM.
In the case of `COC(OC)c1ccc(C#N)c(=O)n1Cc1ccc(Cl)cc1` [92B], the IC50 lay in the range of 1 to 2 µM.
With `Cc1nc2nc(SCCOc3ccc(C#N)cc3)nn2c(C)c1C` [125A] the figure was 1 to 2 µM; with `Cc1cc(-c2ccccc2)nc2c1/C(=N\O)CC(C)(C)C2` [104B], 0.5 to 1 µM; with `O=C(Nc1ccc(N2CCC(C(F)(F)F)CC2)nc1)c1cccc(Cl)c1` [13A], above 2 µM.
Regarding `Cc1cccc(N2CC[C@H]3[C@H]2CCN3c2ncccn2)n1` [115B], the 50% inhibitory concentration (IC50) is 0.5 to 1 µM.
Next, `CN(C)c1ccnc2sc(C(=O)c3ccccc3)c(N)c12` [106B]: below 0.2 µM; `COc1ccc(-c2noc(-c3cscn3)n2)cn1` [137A]: above 2 µM.
With `O=C(Nc1ccc2c(c1)ncn2-c1ccccc1)c1ccc(Cl)cc1` [39A] the figure was 1 to 2 µM; with `COc1cc(OC)c(NC(=O)c2[nH]nc3c2CSc2ccccc2-3)cc1Cl` [compound 34], 0.2 to 0.5 µM; with `Cc1csc(Nc2nc(N)c(C(=O)Nc3cc(Cl)ccc3F)o2)n1` [compound 37], 0.5 to 1 µM.
Next, `COc1ccc(NC(=O)c2ccc(C(F)(F)F)[nH]c2=O)cn1` [18A]: above 2 µM.
The compound `COc1ccc(C(=O)Nc2nc3c(s2)CCCC3)cc1` [171A] showed an IC50 of 1 to 2 µM.
As for `COc1ccc(Nc2oc(-c3ccccc3C)nc2C#N)cc1` [78B], the 50% inhibitory concentration (IC50) lay within 0.5 to 1 µM.
Next, `CC(=O)Nc1cc(Cl)c(-c2ccc([N+](=O)[O-])o2)c(Cl)c1` [101B]: 0.2 to 0.5 µM.
`Cc1c(C(=O)Nc2ccccc2)nnn1Cc1ccccc1` [26A] returned a half-inhibitory concentration (IC50) of 1 to 2 µM.
With `Cc1ccc(NC(=O)c2cc3ccccc3n(C)c2=O)cc1` [29B] the figure was 1 to 2 µM.
Next, `CN(CC(=O)NC(=O)Nc1ccccc1)Cc1ccc(Cl)s1` [compound 153]: 0.5 to 1 µM; `COc1ccccc1-c1nc(-c2ccc(CN(C)C(C)=O)cc2)cs1` [compound 50]: below 0.2 µM.
Next, `CCCN(C(=O)C1CC1)c1nnc(-c2ccc(Cl)cc2)s1` [144A]: 1 to 2 µM; `Cc1cccc(-n2ccc(=O)c(C(=O)Nc3ccccc3F)n2)c1` [compound 31]: 0.2 to 0.5 µM.
The compound `O=C(Nc1ccc2[nH]c(C(F)(F)F)nc2c1)c1cccn(Cc2ccccc2)c1=O` [compound 49] showed an IC50 below 0.2 µM.
Consider `Fc1ccc(-c2cn(-c3ccc4nnc(C(F)(F)F)n4n3)cn2)cc1` [compound 108], for which the IC50 lay in the range of 0.5 to 1 µM.
With `COc1ccc(NC(=O)CSc2nnc(-c3sc4nc(C)cc(C)c4c3N)o2)cc1` [82B] the figure was 0.5 to 1 µM.
Next, `Cc1cc(C)nc(N2CCN(c3ccc(Cl)cc3)CC2)n1` [70A]: above 2 µM; `CS(=O)(=O)N1CCc2cc(-c3csc(Cc4cn5cc(Cl)cc(Cl)c5n4)n3)ccc21` [57A]: 1 to 2 µM; `CC(=O)Nc1cn(-c2ccccc2)nc1-c1ccc(Cl)s1` [55B]: 0.5 to 1 µM.
`Cc1ccc(CS(=O)(=O)c2ccc(C(F)(F)F)cn2)cc1` [92A] yielded an IC50 of 1 to 2 µM.
With `Cc1cccc(CSc2nncc3ccccc23)c1` [95B] the figure was 0.5 to 1 µM; with `CN(C)c1nc(N2CCN(c3ccc(F)cc3)CC2)cc(C(F)(F)F)n1` [compound 81], 0.2 to 0.5 µM; with `c1ccc(-c2ccc(OCc3ccno3)cc2)cc1` [130A], 1 to 2 µM.
With `CCOc1ccc(-c2ccc(SCC)nn2)cc1` [90A] the figure was above 2 µM; with `c1ccc(-c2nc(CSc3nncn3-c3ccccc3)co2)cc1` [133A], 1 to 2 µM; with `COCCN1Cc2cccc(C(=O)Nc3ccc(C)c(F)c3)c2C1=O` [compound 32], 0.2 to 0.5 µM.
Turning to `N#Cc1ccc(C(=O)Nc2ccc(Cl)c(C#N)c2)cc1` [7A], the IC50 fell in the range of 1 to 2 µM.
With `O=c1cc(NCc2cccc(C(F)(F)F)c2)nc2ccc(Cl)cn12` [167A] the figure was above 2 µM.
